The values that follow come from patent publication US11767323B2, “Tricyclic pyridone compounds as JAK2 V617F inhibitors” (Incyte Corporation, priority 2020, dated 2023).

Assay [1] deals with pseudo-kinase domain (JH2, amino-acids 536-812) of human V617F mutant JAK2 (Homo sapiens (Human), UniProt O60674, F794H/V617F/W659A/W777A). As to the kind of experiment: JAK2 LanthaScreen JH2-V617F Binding Assay. As to conditions: JAK2 JH2-V617F 0.26 nM, 50 nM tracer, 1 hour at 25° C.; read-out: JH2 BIND V617F IC50. The method in brief:
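Binding was measured as TR-FRET displacement of 50 nM tracer from 0.26 nM biotinylated His-Avi protein, incubated one hour at 25° C; IC50 from a four-parameter fit.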

Assay [2] concerns the target catalytic domain (JH1, amino acids 808-1132) of human JAK2 (Homo sapiens (Human), UniProt O60674). The assay can be described thus: JAK2 HTRF Enzyme Activity Assay. It counts as biochemical. The note with it: JAK2 0.015 nM, ATP (30 μM or 1 mM), 60 minutes at 25° C. (In general: In TR-FRET formats the signal depends on donor and acceptor labels being close together.)
The target of assay [3] is pseudo-kinase domain (JH2, amino-acids 536-812) of human Wild Type JAK2 (Homo sapiens (Human), UniProt O60674, F794H/W659A/W777A). The assay can be described thus: JAK2 LanthaScreen JH2-WT Binding Assay. As to conditions: JAK2 JH2-WT 0.145 nM, 50 nM tracer, 1 hour at 25° C.; read-out: JH2 BIND WT IC50. Summed up: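 Biotinylated His-Avi-tagged JH2 construct carrying W659A/W777A/F794H surface mutations, 0.145 nM, incubated 1 h at 25° C with compound, 50 nM fluorescent JH2 tracer and 0.25 nM streptavidin-Tb in pH 7.5 Tris buffer. Non-specific binding defined with 2 mM ATP. TR-FRET read; IC50 from four-parameter fit.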
Sequence of pseudo-kinase domain (JH2, amino-acids 536-812) of human Wild Type JAK2 (O60674 536-812 W659A/W777A/F794H): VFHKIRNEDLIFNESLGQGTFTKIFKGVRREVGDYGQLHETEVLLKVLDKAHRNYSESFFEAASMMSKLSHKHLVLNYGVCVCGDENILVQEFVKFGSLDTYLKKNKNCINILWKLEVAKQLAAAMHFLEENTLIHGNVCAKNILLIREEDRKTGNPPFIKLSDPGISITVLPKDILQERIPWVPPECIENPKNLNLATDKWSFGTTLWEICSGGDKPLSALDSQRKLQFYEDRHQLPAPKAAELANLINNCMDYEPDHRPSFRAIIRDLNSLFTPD

The target of assay [4] is catalytic domain (JH1, amino acids 826-1132) of human JAK2 (Homo sapiens (Human), UniProt O60674). The assay can be described thus: JAK2 LanthaScreen JH1 Binding Assay. The note with it: JAK2 JH1 1.5 nM, 50 nM tracer, 2 hours at 25° C.; read-out: JH1 BIND IC50. The method in brief: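 Reaction held 1.5 nM biotinylated FLAG-JAK2 JH1, 50 nM tracer and 0.5 nM streptavidin-Tb in pH 7.5 Tris buffer; 2 mM ATP defined nonspecific binding.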
Sequence of catalytic domain (JH1, amino acids 826-1132) of human JAK2 (O60674 826-1132): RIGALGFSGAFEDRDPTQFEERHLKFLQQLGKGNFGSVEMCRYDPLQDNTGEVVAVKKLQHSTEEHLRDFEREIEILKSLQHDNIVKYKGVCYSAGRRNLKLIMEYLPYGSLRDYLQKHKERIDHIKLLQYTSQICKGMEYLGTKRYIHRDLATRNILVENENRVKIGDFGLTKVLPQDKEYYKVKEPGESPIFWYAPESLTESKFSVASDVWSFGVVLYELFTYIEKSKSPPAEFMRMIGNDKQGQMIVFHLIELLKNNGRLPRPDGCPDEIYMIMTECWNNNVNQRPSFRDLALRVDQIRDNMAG

Each structure is given as a SMILES string.

Sequence of pseudo-kinase domain (JH2, amino-acids 536-812) of human V617F mutant JAK2 (O60674 536-812 V617F/W659A/W777A/F794H): as the sequence (O60674 536-812 W659A/W777A/F794H) above, with V82F counted along it
Sequence of catalytic domain (JH1, amino acids 808-1132) of human JAK2 (O60674 808-1132): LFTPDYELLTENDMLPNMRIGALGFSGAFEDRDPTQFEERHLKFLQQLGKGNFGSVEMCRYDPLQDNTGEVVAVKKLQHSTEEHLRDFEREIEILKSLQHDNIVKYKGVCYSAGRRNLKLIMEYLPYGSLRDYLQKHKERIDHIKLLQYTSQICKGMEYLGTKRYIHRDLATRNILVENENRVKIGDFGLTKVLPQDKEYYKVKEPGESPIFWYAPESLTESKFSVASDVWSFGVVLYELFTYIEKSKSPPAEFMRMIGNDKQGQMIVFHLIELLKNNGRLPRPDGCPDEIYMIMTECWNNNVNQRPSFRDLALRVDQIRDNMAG

In general, IC50 refers to the concentration that inhibits the measured activity by half. `Cc1cc(-c2c(-c3ccc(C(=O)Nc4ccc5oc(C)nc5c4)cc3)c3c4cc(-c5cnn(C)c5)[nH]c4ncc3n(C)c2=O)on1` [Example 26, 4-(6-Methyl-2-(1-methyl-1H-pyrazol-4-yl)-8-(3-methylisoxazol-5-yl)-7-oxo-6,7-dihydro-3H-pyrrolo[3,2-f][1,7]naphthyridin-9-yl)-A-(2-methylbenzo[d]oxazol-5-yl)benzamide]: the IC50 is no more than 100 nM in assay [1], 100 to 500 nM in assay [2], no more than 100 nM in assay [3] and 100 to 500 nM in assay [4].

On to `COCCS(=O)(=O)C1CCN(c2cc3c4c(-c5ccc(C(=O)N(C)C)cc5)c(-c5cnn(C)c5)[nH]c4ncc3n(C)c2=O)CC1` [Example 40, 4-(8-(4-((2-Methoxyethyl)sulfonyl)piperidin-1-yl)-6-methyl-2-(1-methyl-1H-pyrazol-4-yl)-7-oxo-6,7-dihydro-3H-pyrrolo[3,2-f][1,7]naphthyridin-1-yl)-N,N-dimethylbenzamide], for which the IC50 in assay [1] is 100 to 500 nM; in assay [2], 1000 to 10000 nM; in assay [3], 100 to 500 nM; in assay [4], 1000 to 10000 nM.

Regarding `COC1CCC(c2cc(=O)n(C)c3cnc4[nH]c(-c5cnn(C)c5)cc4c23)CC1` (centres unmarked) [Example 24, 9-(4-methoxycyclohexyl)-6-methyl-2-(1-methyl-1H-pyrazol-4-yl)-3,6-dihydro-7H-pyrrolo[3,2-f][1,7]naphthyridin-7-one], the IC50 in assay [1], in assay [2], in assay [3] and in assay [4] was no more than 100 nM in each case.

`CN(C)C(=O)c1ccc(-c2c(-c3cnn(C)c3)[nH]c3ncc4c(cc(N5CCC6(CCOC6)CC5)c(=O)n4C)c23)cc1` [Example 41, N,N-dimethyl-4-(6-methyl-2-(1-methyl-1H-pyrazol-4-yl)-7-oxo-8-(2-oxa-8-azaspiro[4.5]decan-8-yl)-6,7-dihydro-3H-pyrrolo[3,2-f][1,7]naphthyridin-1-yl)benzamide]: the IC50 in assay [1] was in the range of 500 to 1000 nM; in assay [2], 1000 to 10000 nM; in assay [3], 100 to 500 nM; in assay [4] it was 1000 to 10000 nM.

On to `Cc1c(-c2ccc(Cl)cc2)c(=O)n(C)c2cnc3[nH]c(-c4ccc(CN5CCC(S(C)(=O)=O)CC5)cc4)cc3c12` [Example 10, 8-(4-Chlorophenyl)-6,9-dimethyl-2-(4-((4-(methylsulfonyl)piperidin-1-yl)methyl)phenyl)-3,6-dihydro-7H-pyrrolo[3,2-f][1,7]naphthyridin-7-one], for which the IC50 was no more than 100 nM in assay [1], 100 to 500 nM in assay [2], no more than 100 nM in assay [3] and 100 to 500 nM in assay [4].

For the molecule `Cc1c(-c2ccc3c(c2)OCCO3)c(=O)[nH]c2cnc3[nH]c(-c4ccc(CN5CCC(S(C)(=O)=O)CC5)cc4)cc3c12` [Example 19, 8-(2,3-Dihydrobenzo[6][1,4]dioxin-6-yl)-9-methyl-2-(4-((4-(methylsulfonyl)piperidin-1-yl)methyl)phenyl)-3,6-dihydro-7H-pyrrolo[3,2-f][1,7]naphthyridin-7-one], the IC50 in assay [1], in assay [2], in assay [3] and in assay [4] was 1000 to 10000 nM in each case.

Regarding `CC(=O)N1CC[C@H](c2cc3c4c(-c5ccccc5)c(-c5ccc(CN6CCC(S(C)(=O)=O)CC6)cc5)[nH]c4ncc3n(C)c2=O)C1` [Example 37, (R)-8-(1-acetylpyrrolidin-3-yl)-6-methyl-2-(4-((4-(methylsulfonyl)piperidin-1-yl)methyl)phenyl)-1-phenyl-3,6-dihydro-7/7-pyrrolo[3,2-f][1,7]naphthyridin-7-one], the half-inhibitory concentration (IC50) in assay [1], in assay [2], in assay [3] and in assay [4] was no more than 100 nM each time.

`Cc1c(-c2ccc(C(=O)O)cc2)c(=O)n(C)c2cnc3[nH]c(-c4ccc(CN5CCC(S(C)(=O)=O)CC5)cc4)cc3c12` [Example 8, 4-(6,9-Dimethyl-2-(4-((4-(methylsulfonyl)piperidin-1-yl)methyl)phenyl)-7-oxo-6,7-dihydro-3H-pyrrolo[3,2-f][1,7]naphthyridin-8-yl)benzoic acid]: the IC50 in assay [1] is no more than 100 nM; in assay [2], 100 to 500 nM; in assay [3] it was no more than 100 nM; in assay [4] it was 100 to 500 nM.

For `COCc1ccc(-c2c(-c3cc(C)no3)c(=O)n(C)c3cnc4[nH]c(-c5cnn(C)c5)cc4c23)cc1` [Example 27, 9-(4-(Methoxymethyl)phenyl)-6-methyl-2-(1-methyl-1H-pyrazol-4-yl)-8-(3-methylisoxazol-5-yl)-3,6-dihydro-7H-pyrrolo[3,2-f][1,7]naphthyridin-7-one], the IC50 in assay [1] was no more than 100 nM; in assay [2], 100 to 500 nM; in assay [3], no more than 100 nM; in assay [4] it was 100 to 500 nM.

Turning to `Cc1c(-c2ccc(C(=O)O)cc2)c(=O)[nH]c2cnc3[nH]c(-c4ccc(CN5CCC(S(C)(=O)=O)CC5)cc4)cc3c12` [Example 6, 4-(9-Methyl-2-(4-((4-(methylsulfonyl)piperidin-1-yl)methyl)phenyl)-7-oxo-6,7-dihydro-3H-pyrrolo[3,2-f][1,7]naphthyridin-8-yl)benzoic acid], the IC50 in assay [1] was no more than 100 nM; in assay [2], greater than 10000 nM; in assay [3], no more than 100 nM; in assay [4], greater than 10000 nM.

For `CS(=O)(=O)C1CCN(Cc2ccc(-c3cc4c(ncc5[nH]c(=O)c(C#N)cc54)[nH]3)cc2)CC1` [Example 3, 2-(4-((4-(Methylsulfonyl)piperidin-1-yl)methyl)phenyl)-7-oxo-6,7-dihydro-3H-pyrrolo[3,2-f][1,7]naphthyridine-8-carbonitrile], the half-maximal inhibitory concentration (IC50) in assay [1] is 1000 to 10000 nM; in assay [2], greater than 10000 nM; in assay [3] it was 1000 to 10000 nM; in assay [4] it was greater than 10000 nM.
